No end group written: not given here.
What was measured:
Assay in all cases: biochemical
Format in all cases: binding
A31 (A*3101) = A31 (A*3101) (Homo sapiens, UniProt P04439, A270S/D185E/E176V/E277Q/F33T/G231S/G80R/H175R/I121M/I218V/I322F/K168Q/L300P/L318F/M331R/P217A/Q94H/R138Q/T323A/T345S/T97I/V358M)
A*3301 = A*3301 (Homo sapiens, UniProt P04439, A270S/D185E/E176V/E277Q/E87N/F33T/G231S/H175R/I121M/I218V/I322F/K168Q/K210R/L300P/L318F/M331R/P217A/Q86R/Q94H/R138Q/T323A/T345S/T97I/V358M/Y195H)
A*6801 = A*6801 (Homo sapiens, UniProt P04439, A269V/D185E/E176V/E277Q/E87N/F33Y/G231S/I121M/I166T/I218V/L180W/L300P/L318F/N151K/P208A/P217A/Q86R/R169H/T345S)
HLA-A11 (A*1101) = HLA-A11 (A*1101) (Homo sapiens, UniProt P04439, A114D/D185E/E176A/F33Y/L180Q/S129P/T187R)
HLA-A3.2 (A*0301) = HLA-A3.2 (A*0301) (Homo sapiens, UniProt P04439)

| Sequence | IC50 (A31 (A*3101)) [nM] | IC50 (A*3301) [nM] | IC50 (A*6801) [nM] | IC50 (HLA-A11 (A*1101)) [nM] | IC50 (HLA-A3.2 (A*0301)) [nM] |
| --- | --- | --- | --- | --- | --- |
| LLQAVRIIK [Peptide 9017.0068] | 328 | 3020 | 15900 | 326 | 107 |
| LLRAVRIIK [Peptide 9017.0069] | 2640 | > 20000 | > 20000 | 2030 | 69 |
| LLYGAANTGK [Peptide 1587.12] | 6720 | > 20000 | 76 | 16 | 3.3 |
| LLYGPANTGK [Peptide 1587.56] | 6300 | 14500 | 44 | 8.8 | 14 |
| LQGKLYYKFK [Peptide 88.0184] | 3710 | 16200 | > 20000 | 130 | 724 |
| LQLALEALNK [Peptide 88.0227] | 3630 | > 20000 | > 20000 | 21 | 1100 |
| LSALKLFLK [Peptide 1587.39] | 96 | 1820 | 2210 | 31 | 957 |
| LTNILNVLK [Peptide 1587.02] | 210 | 2030 | 12 | 4.6 | 221 |
| LTSQIEHWK [Peptide 88.0439] | 8880 | > 20000 | 24 | 14 | 4940 |
| LTTNIHPAK [Peptide 88.0347] | 231 | 575 | 16 | 18 | 44 |
| LVYQDTILWK [Peptide 9012.0221] | > 20000 | > 20000 | 155 | 32 | 199 |
| LVYRDDFPY [Peptide 1581.04] | > 20000 | > 20000 | 11300 | 58 | 7380 |
| MALESILRK [Peptide 9012.0214] | > 20000 | 5480 | 433 | 13 | 216 |
| MLVRFKCAK [Peptide 1587.30] | 85 | 983 | 864 | 187 | 151 |
| MQYVAWKYIY [Peptide 88.0233] | > 20000 | > 20000 | 12100 | 52 | 1890 |
| MTDAGTWDK [Peptide 88.0400] | > 20000 | > 20000 | 28 | 12 | 1580 |
| MTYVAWDSVY [Peptide 1589.07] | 19400 | > 20000 | 73 | 892 | 616 |
| NLQGKLYYK [Peptide 88.0375] | 363 | 9.4 | 98 | 55 | 277 |
| NSNAAAFLK [Peptide 88.0342] | 2640 | 665 | 22 | 19 | 955 |
| NSNAAAFLR [Peptide 88.0387] | 158 | 50 | 20 | 213 | > 20000 |
| NSNASAFLK [Peptide 1587.07] | 3400 | 269 | 27 | 13 | 426 |
| NVAPIVHLK [Peptide 1589.21] | > 20000 | > 20000 | 2.4 | 394 | 6380 |
| QQLLFIHFR [Peptide 9017.0111] | 2 | 41 | 17 | 4.8 | 1800 |
| QQMFLGTVK [Peptide 88.0415] | 7170 | > 20000 | 1580 | 22 | 2040 |
| QSNPYPEPK [Peptide 9017.0070] | 513 | > 20000 | 868 | 46 | 1040 |
| QTCALYWFR [Peptide 88.0361] | 51 | 19 | 18 | 64 | 1960 |
| QVVPALSVSK [Peptide 1589.13] | 8920 | > 20000 | 12 | 25 | 825 |
| QVVPAYNISK [Peptide 1589.06] | 6660 | > 20000 | 7.6 | 15 | 326 |
